# Measurements taken from ChEMBL document CHEMBL1201862, “PubChem BioAssay data set” (2004).
# Active and inactive are the calls of the source.
# Assays:
# [1] = A High Throughput Confirmatory Assay used to Identify Novel Compounds that Inhibit Mycobacterium Tuberculosis in the absence of Glycerol.; type: functional
# [2] = cells; type: functional
# [3] = target: T1, Estrogen receptor (Homo sapiens, UniProt P03372);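 further: potency for inhibiting coactivator peptide recruitment to the receptor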
# T1 sequence (P03372 whole entry): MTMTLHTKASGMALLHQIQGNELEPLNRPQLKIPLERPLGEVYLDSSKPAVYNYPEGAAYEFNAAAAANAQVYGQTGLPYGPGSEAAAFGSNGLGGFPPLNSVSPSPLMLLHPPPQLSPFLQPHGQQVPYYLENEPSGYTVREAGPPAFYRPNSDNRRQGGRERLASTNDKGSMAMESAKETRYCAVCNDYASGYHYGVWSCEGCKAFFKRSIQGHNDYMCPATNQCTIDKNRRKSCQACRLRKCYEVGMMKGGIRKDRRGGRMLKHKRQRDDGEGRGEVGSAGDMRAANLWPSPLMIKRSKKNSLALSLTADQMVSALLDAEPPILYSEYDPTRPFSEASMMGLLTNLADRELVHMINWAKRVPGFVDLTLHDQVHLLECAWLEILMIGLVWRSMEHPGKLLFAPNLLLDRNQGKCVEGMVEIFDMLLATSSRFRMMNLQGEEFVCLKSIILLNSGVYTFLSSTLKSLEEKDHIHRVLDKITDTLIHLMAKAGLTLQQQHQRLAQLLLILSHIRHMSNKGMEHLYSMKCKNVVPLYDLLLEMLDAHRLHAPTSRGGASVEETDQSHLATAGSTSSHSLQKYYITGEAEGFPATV
# [4] = system: Streptococcus sp. 'group A'; experiment: Streptococcus pyogenes SK(-)GAS viability under kanamycin – luminescence, BacTiterGlo, confirmation, counter-screen for streptokinase expression inhibitor project, dose response (AID 1900); type: functional, organism-based
# [5] = cells; type: functional, cell-based
# [6] = Trypanosoma cruzi growth suppression in host cells – NIH3T3 host cells, beta-gal luminescence, confirmation (AID 2044); type: functional, cell-based;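 further: intracellular parasites grown in NIH/3T3 mouse fibroblasts as host cells; luminescent beta-galactosidase reporter signal from transgenic T. cruzi replicating inside host cells; inhibitors lower the luminescence signal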
# [7] = system: INS1; experiment: INS-1E survival protection against cytokine death – cell-based, luminescence, retest, dose response (AID 449756); type: functional; conditions: Rattus norvegicus;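 further: cell death triggered by IL-1 beta plus TNF-alpha plus IFN-gamma mixture; protective hits raise ATP signal compared with cytokine alone wells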
# [8] = system: HEK293; experiment: cells; type: functional, cell-based; conditions: Homo sapiens
# [9] = luciferase reporter signal suppression in cells – H4 neuroglioma cells, luminescence, dose response (AID 1990); type: functional, cell-based
# [10] = system: HEK293; experiment: cells; type: functional, cell-based; conditions: Homo sapiens; remark: listed apart in the source
# [11] = target: T2, Mannose-6-phosphate isomerase (Homo sapiens, UniProt P34949); experiment: MPI enzyme activity inhibition – biochemical, fluorescence intensity, coupled assay, primary screen (AID 1209)
# T2 sequence (P34949 whole entry): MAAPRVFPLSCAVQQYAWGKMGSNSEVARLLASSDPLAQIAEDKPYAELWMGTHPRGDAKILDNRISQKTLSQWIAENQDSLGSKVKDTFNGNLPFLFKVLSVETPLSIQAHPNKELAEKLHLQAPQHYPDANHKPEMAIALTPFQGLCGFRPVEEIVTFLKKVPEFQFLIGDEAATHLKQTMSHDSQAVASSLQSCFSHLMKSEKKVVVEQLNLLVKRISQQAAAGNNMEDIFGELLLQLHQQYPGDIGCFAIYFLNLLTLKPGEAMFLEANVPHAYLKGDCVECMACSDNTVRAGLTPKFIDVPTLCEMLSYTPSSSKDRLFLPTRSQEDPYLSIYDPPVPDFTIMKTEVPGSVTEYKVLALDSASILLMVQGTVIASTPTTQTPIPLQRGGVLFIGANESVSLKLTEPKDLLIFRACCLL
# [12] = luciferase reporter signal reduction – luminescence, H4-C neuroglioblastoma cells, dose response (AID 2458); type: functional, cell-based;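 further: H4 neuroglioblastoma cells stably carrying a luciferase reporter gene fusion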
# [13] = system: HEK293; experiment: NOD2 signaling inhibitors in MDP-stimulated cells, cell-based, uHTS, luminescence (AID 2001); type: functional; conditions: Homo sapiens
# [14] = target: T2, Mannose-6-phosphate isomerase; experiment: MPI inhibition at elevated mannose 6-phosphate – biochemical, fluorescence intensity, high mannose 6-phosphate, primary screen (AID 1220)
# [15] = system: Streptococcus; experiment: GAS UMAA2166 growth inhibition – luminescence, BacTiterGlo, counter-screen for streptokinase expression inhibitor project, dose response (AID 1915); type: functional, organism-based;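 further: potency for reduction of bacterial viability or growth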
# [16] = system: HEK293; experiment: inhibition of NOD1-driven NF-kB reporter – cell-based, luminescence, uHTS, primary screen (AID 1578); type: functional; conditions: Homo sapiens
# [17] = alpha-synuclein stem-loop translation blockers – luminescence, H4 neuroglioblastoma cells, dose confirmation, confirmation (AID 2454); type: functional, cell-based;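 further: H4 neuroglioblastoma cells carrying an alpha-synuclein 5'UTR luciferase reporter; potency for inhibition of the luciferase signal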
# [18] = system: HEK293; experiment: cells; type: functional, cell-based; conditions: Homo sapiens; remark: listed apart in the source
# [19] = NIH3T3 cell viability loss – ATP luminescence, mouse fibroblasts, counter-screen, dose response (AID 2010); type: functional, cell-based;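 further: cells exposed to compound for about 90 hours before reading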
# [20] = target: Nucleotide-binding oligomerization domain-containing protein 2 (Homo sapiens, UniProt Q9HC29); experiment: inhibition of NOD2-driven NF-kB reporter – cell-based, luminescence, uHTS, HEK293 (AID 1566); type: functional
# [21] = alpha-synuclein stem-loop luciferase translation blockers – H4 neuroglioma cells, luminescence, confirmation (AID 1988); type: functional, cell-based
# [22] = target: Wee1-like protein kinase (Homo sapiens, UniProt P30291); experiment: Dose Response Cell-based Assay for Inhibitors of Wee1 Degradation. [Related pubchem assays: 1410, 1321 ]; type: functional
# [23] = target: G2/mitotic-specific cyclin-B1 (Homo sapiens, UniProt P14635); experiment: Counterscreen assay for inhibitors of Wee1 degradation: dose response cell-based assay to identify inhibitors of cyclin B degradation. [Related pubchem assays: 1410, 1321 ]; type: functional
# [24] = target: NADPH oxidase 1 (Homo sapiens, UniProt Q9Y5S8); type: functional, cell-based;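 further: Cell-based assay with luminescence read-out, IC50 derived from inhibitor dose-response curves; intracellular ROS from endogenous NOX1 in intact HT29 colon cancer cells; potency of inhibitors that lower the ROS luminescence signal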
# Sequence of NADPH oxidase 1 (Q9Y5S8 whole entry): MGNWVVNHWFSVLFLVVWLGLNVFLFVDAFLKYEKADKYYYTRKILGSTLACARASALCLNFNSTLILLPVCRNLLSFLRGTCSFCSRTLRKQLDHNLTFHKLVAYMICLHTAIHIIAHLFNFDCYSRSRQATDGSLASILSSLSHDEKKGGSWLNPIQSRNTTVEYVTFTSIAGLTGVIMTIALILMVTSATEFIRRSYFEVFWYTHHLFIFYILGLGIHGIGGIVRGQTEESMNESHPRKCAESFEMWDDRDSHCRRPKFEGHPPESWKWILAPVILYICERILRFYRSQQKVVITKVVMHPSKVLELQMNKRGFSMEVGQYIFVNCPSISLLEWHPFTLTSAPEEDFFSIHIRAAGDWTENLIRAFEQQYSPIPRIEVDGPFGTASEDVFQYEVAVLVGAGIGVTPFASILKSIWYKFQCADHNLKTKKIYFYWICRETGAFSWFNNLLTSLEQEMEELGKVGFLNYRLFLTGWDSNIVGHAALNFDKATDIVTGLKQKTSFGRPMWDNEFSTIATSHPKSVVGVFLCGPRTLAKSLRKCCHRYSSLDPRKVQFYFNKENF
# Sequence of Nucleotide-binding oligomerization domain-containing protein 2 (Q9HC29 whole entry, the tested form may be a part): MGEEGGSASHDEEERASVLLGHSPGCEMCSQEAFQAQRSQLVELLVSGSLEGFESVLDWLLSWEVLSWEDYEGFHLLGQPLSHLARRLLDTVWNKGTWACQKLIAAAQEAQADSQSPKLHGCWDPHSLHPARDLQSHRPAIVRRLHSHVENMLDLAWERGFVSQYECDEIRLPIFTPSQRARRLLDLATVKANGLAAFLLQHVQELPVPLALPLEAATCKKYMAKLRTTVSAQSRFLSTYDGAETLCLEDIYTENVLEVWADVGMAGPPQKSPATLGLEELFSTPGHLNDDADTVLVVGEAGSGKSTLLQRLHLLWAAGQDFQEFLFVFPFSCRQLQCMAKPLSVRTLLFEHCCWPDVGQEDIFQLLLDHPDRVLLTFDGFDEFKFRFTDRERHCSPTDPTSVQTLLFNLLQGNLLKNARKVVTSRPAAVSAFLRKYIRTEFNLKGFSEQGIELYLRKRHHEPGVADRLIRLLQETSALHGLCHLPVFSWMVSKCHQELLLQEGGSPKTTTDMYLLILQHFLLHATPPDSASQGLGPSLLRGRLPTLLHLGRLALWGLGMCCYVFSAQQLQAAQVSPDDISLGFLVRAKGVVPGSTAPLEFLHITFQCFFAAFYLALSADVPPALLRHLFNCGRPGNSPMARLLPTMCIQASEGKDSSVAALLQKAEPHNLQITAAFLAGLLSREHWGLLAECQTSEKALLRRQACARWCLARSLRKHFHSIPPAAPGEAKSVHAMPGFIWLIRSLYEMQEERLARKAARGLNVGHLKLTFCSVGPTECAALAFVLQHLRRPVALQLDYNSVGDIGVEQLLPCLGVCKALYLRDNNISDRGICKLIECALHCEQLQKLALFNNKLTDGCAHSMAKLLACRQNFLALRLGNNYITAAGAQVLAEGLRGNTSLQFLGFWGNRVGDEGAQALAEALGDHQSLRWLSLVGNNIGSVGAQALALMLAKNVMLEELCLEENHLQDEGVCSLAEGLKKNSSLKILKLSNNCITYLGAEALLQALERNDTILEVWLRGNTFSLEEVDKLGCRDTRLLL
# Sequence of G2/mitotic-specific cyclin-B1 (P14635 whole entry): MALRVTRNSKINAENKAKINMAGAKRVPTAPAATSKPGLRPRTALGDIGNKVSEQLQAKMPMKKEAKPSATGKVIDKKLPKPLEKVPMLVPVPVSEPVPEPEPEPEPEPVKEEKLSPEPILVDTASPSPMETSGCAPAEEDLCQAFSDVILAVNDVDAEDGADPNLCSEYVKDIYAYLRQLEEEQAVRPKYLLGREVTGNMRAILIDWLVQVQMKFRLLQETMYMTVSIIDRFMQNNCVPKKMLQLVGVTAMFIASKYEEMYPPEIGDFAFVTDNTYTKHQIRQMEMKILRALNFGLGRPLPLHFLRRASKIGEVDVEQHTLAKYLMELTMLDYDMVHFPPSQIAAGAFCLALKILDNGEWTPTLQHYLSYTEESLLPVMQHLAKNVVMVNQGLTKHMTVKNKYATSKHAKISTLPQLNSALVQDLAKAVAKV
# Sequence of Wee1-like protein kinase (P30291 whole entry): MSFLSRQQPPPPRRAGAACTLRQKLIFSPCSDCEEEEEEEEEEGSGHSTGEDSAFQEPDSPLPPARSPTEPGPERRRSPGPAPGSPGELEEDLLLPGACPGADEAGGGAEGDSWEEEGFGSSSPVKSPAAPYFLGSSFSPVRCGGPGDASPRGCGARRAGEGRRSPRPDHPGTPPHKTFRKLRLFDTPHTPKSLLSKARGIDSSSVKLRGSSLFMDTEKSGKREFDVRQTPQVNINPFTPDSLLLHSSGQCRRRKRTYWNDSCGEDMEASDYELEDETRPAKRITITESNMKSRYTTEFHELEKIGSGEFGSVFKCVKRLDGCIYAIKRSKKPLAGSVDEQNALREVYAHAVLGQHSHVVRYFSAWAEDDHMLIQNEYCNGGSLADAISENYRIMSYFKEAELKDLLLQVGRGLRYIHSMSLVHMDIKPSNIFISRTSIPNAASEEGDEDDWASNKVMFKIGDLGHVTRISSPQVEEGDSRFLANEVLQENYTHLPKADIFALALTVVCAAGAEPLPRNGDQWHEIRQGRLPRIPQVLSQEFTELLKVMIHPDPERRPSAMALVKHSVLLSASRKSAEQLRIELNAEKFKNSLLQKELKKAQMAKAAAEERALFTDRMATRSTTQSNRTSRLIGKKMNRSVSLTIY
compound,measurement,setting,value
O=c1oc(-c2cccs2)nc2c1cnn2-c1ccccc1,IC50,[1],> 100 µM (active)
same,IC50,[2],4.92 µM (active)
CCCc1cc(-n2ccnc2)n2c(nc3ccccc32)c1C#N,IC50,[3],29.8 µM (active)
Oc1c(CN2CCN(c3ccccn3)CC2)cc(Cl)c2cccnc12,EC50,[4],3.06 µM (active)
same,EC50,[5],> 12 µM (inconclusive)
same,EC50,[6],0.942 µM (active)
same,AC50,[7],1.99 µM (active)
same,IC50,[8],> 20 µM (inactive)
same,EC50,[9],2.52 µM (active)
same,IC50,[10],6.23 µM (active)
same,IC50,[11],> 50 µM (not active)
same,EC50,[12],10.7 µM (active)
same,IC50,[13],4.88 µM (inactive)
same,IC50,[14],> 50 µM (not active)
same,EC50,[15],5.45 µM (active)
same,EC50,[16],4.58 µM (active)
same,EC50,[17],> 12 µM (not active)
same,IC50,[18],> 20 µM (inactive)
same,EC50,[19],7.32 µM (active)
same,EC50,[20],8.07 µM (active)
same,EC50,[21],< 0.1 µM (active)
COc1cccc(/C=N/NC(=O)c2cc3c(OC)c(OC)ccc3[nH]2)c1OC,EC50,[22],> 49.7 µM (not active)
same,EC50,[23],> 49.7 µM (not active)
Cc1ccc(-c2nc(-c3ccccc3)c(-c3ccccc3)[nH]2)cc1,IC50,[24],> 17 µM (not active)
